Measurements from patent US20250255930A1, “METHODS OF TREATMENT OF TINNITUS USING DERIVATIVES OF OXYTOCIN” (MASKBEGONE LLC, priority 2024, published 2025).

Assay: clinical use of intranasal oxytocin formulations to treat tinnitus (patient case reports)
Assay type: in vivo, human
From the text: According to an embodiment, this disclosure provides a method for treating tinnitus. The method comprises administering intranasally to an individual a composition comprising or consisting essentially of oxytocin, wherein such administration results in treatment of tinnitus. The effectiveness of treatment of tinnitus may be monitored by quantifying tinnitus, such as by self-evaluation using clinically accepted techniques. An example is the Tinnitus Handicap Inventory (“THI”), a validated and published measurement technique. (Newman et al., Arch Otolaryngol Head Neck Surg, 1996 February 122 (2), 143-8). In an embodiment, the improvement in an individual using THI may comprise an improvement of at least 10%. In various embodiments, the improvement may comprise from 10-100%, such as at least 20, 30, 40, 50, 60, 70, 80, 90, 95, or 99%.
This example describes clinical use of the present formulations to treat tinnitus. […] A compounded formulation of oxytocin that provided a dose of 60 IU daily (30 IU twice daily) was then used. The formulation contained oxytocin, magnesium chloride, citric acid, and sodium citrate in sterile water. […] The dose was then increased to 45 IU (3 sprays of 15 IU) 4 times daily. […] A thickener was then added to the formulation keeping the oxytocin amount the same. […] Their score on the Tinnitus Handicap Inventory reduced from a pretreatment score of 96 (meaning a catastrophic level) to a current score of 14 (meaning mild or no tinnitus). The patient has remained improved over 1 year since initiating therapy. Their current dose is 22.5 IU in each nostril 4 times daily. Since their tinnitus occurs in distinct cycles, at times when tinnitus severity is loudest, they increase the dose to 5 times daily for 2 days. […] Their current handicap inventory is 8.

[1] = first patient, 22.5 IU in each nostril 4 times daily, 5 times daily for 2 days when loudest, past 3 months
[2] = patient with constant tinnitus, 30 IU 4 times daily, after 2 weeks
[3] = second patient, 45 IU twice daily

Q: With `CC[C@H](C)[C@@H]1NC(=O)[C@H](Cc2ccc(O)cc2)NC(=O)[C@@H](N)CSSC[C@@H](C(=O)N2CCC[C@H]2C(=O)N[C@@H](CC(C)C)C(=O)NCC(N)=O)NC(=O)[C@H](CC(N)=O)NC(=O)[C@H](CCC(N)=O)NC1=O` [oxytocin, Cys-Tyr-Ile-Gln-Asn-Cys-Pro-Leu-Gly] as the molecule, how does the “time patient has remained improved since initiating therapy” value (first patient) read?
A: over 1 year

Q: What about the current handicap inventory (first patient, 22.5 IU in each nostril 4 times daily, 5 times daily for 2 days when loudest) of the same molecule?
A: 8

Q: What about the time without tinnitus [1] of the same molecule?
A: ≤ 10 days

Q: What about the tinnitus severity [1] of the same molecule?
A: reduced tinnitus severity

Q: What about the relief of tinnitus (first patient, 45 IU (3 sprays of 15 IU) 4 times daily) of the same molecule?
A: significant relief

Q: And the patient-reported benefit (first patient, 60 IU daily (30 IU twice daily), oxytocin, magnesium chloride, citric acid, sodium citrate in sterile water)?
A: partial benefit

Q: What about the “score on the Tinnitus Handicap Inventory” value (first patient, after treatment with thickener formulation, pretreatment score 96) of the same molecule?
A: 14

Q: And the relief of tinnitus (first patient, initial dose of less than 20 IU daily)?
A: did not provide any relief

Q: And the tinnitus free period (first patient, thickener added to formulation, oxytocin amount the same (45 IU 4 times daily))?
A: several days of tinnitus free period

Q: What about the relief of tinnitus (lower amounts of oxytocin (such as under 20 IU per day)) of the same molecule?
A: did not result in any significant relief

Q: And the improvement (patient with constant tinnitus after neck injury, 45 IU (22.5 IU in each nostril) 4 times daily for 30 days)?
A: about 15%

Q: What about the tinnitus volume (patient with constant tinnitus after neck injury, dose raised to 5 times daily on occasions) of the same molecule?
A: diminished tinnitus volume

Q: And the “time without noticing the tinnitus” value [2]?
A: several hours per day without noticing the tinnitus

Q: And the tinnitus intensity [2]?
A: tinnitus intensity has lowered

Q: What about the benefit (patient with drug-caused tinnitus, 30 IU twice daily) of the same molecule?
A: without benefit

Q: What about the “decrease in tinnitus volume” value (patient with drug-caused tinnitus, 45 IU 4 times daily) of the same molecule?
A: approximately 30%

Q: And the benefit [3]?
A: significant benefit

Q: What about the “reduction of tinnitus volume” value [3] of the same molecule?
A: 45-60%

Q: And the “time patient remains improved” value [3]?
A: more than a year

Q: And the tinnitus free days [3]?
A: some days in which they are tinnitus free
